From patent US20190321496A1, “AGENTS AND METHODS FOR THE DIAGNOSIS AND TREATMENT OF DISEASES ASSOCIATED WITH EXTRACELLULAR MATRIX TURNOVER” (Baker IDI Heart and Diabetes Institute Holdings Limited, priority 2016, published 2019)
*1 amine or outer side, *2 acyl side, *3 side chain or, on linkers, in order; H or OH if unused. Where no end group is shown, it is not given here. [ ]: non-standard residue; d: D form. The star is where a group is joined. FITC = O=C1OC2(c3ccc(O)cc3Oc3cc(O)ccc32)c2ccc(NC(=S)*)cc21; Cys(Me) = CSC[C@H](N[*:1])C(=O)[*:2]; AEA = NCCOCC(=O)O

What was measured:
[1] = tested on: unstable plaque (right common carotid artery segment 1); assay: In vivo binding to unstable plaque after intravenous administration to tandem stenosis mice; design: species or system mouse; conditions: tandem stenosis ApoE-/- mice, bolus plus infusion into jugular vein, tissue taken 30 minutes after administration
Experimental: (§1) The T-peptide-FITC (Alexa 488) and its control scrambled peptide Con-peptide-FITC were commercially synthesized (GL Biochem. Shanghai China) using solid phase peptide synthesis, as described elsewhere herein. The concentration of the synthesized peptides were all at 1 mg/ml,
(§2) Each mouse with an average weight of 25 g, would receive […] of T-peptide-FITC or […] of Con-peptide-FITC diluted 1:2 to give concentration of 0.5 mg/ml, which works out to be […] body weight, […] of the diluted peptide will be given as a bolus into the left external jugular vein and the remaining […] by infusion at a rate of […] using an infusion pump connected to a plastic catheter inserted into the left external jugular vein. The method of bolus dose followed by infusion is to optimize the blood level and duration of the circulating peptide to enhance plaque entry and vascular tissue retention of the peptide, since the small molecular weight of the peptide is at risk of rapid clearance through the kidneys. […]
(§3) The frozen section slides were thawed for 30 minutes at room temperature before examination under the fluorescence microscope (IX81 Olympus microscope) in the FITC 488 nm channel.

[2] = tested on: MMP2-predigested collagen IV; assay: In vitro binding to MMP2-predigested collagen IV coated glass slides; design: species or system human; conditions: for FITC signal on MMP2-predigested collagen IV coated glass slide: 0.1 mg/ml, room temperature
Experimental: (§4) T-peptide-FITC (Alexa 488) and control peptide-FITC conjugates, as well as the unlabelled T-peptide-LPETG peptide, were commercially synthesized (GL Biochem. Shanghai, China) using solid phase peptide synthesis, as described elsewhere herein. The concentration of the synthesized peptides were all at 1 mg/ml.
Binding to MMP2 digested collagen IV Collagen IV was applied to glass slides coated with polylysine. 1. Polylysine (MW of 30,000-70,000) at 0.1 mg/ml in 0.15 M borate buffer (pH 8.3) was prepared and filtered with […] pore size membrane syringe filter (Millex® Syringe Filter, Millipore). 2. Collagen IV (collagen type IV from human fibroblast culture, Sigma. Aldrich) was diluted to 1:10 with Hank's Balanced Salt Solution (HBSS) to 0.04 mg/ml. 3. For MMP2 digestion, Active recombinant human MMP2 enzyme (expressed in CHO cells) was purchased from Calbiochem. MMP2 stock solution was diluted with PBS to create 0.01 μg/μl MMP2 concentration according to manufacturer's recommendations. 4. For T-peptide-HTC testing using added MMP2, 20 μl of polylysine was spotted on several glass slides and left overnight at room temperature to dry. This forms a coating base for collagen to adhere to subsequently. 5. To predigest some collagen IV with MMP2, 3 μl of (0.1 mg/ml ) MMP2 was mixed with 35.8 μl of diluted collagen IV solution with 1.2 μl of 100 mM CaCl2 (3 mM Calcium final concentration) in an Eppendorf tube and incubated at 37° C. shaking at 600 rpm in an Eppendorf Thermomixer for 2 hours. 6. To create intact collagen IV coated slides, […] of diluted collagen IV solution was dropped onto the dried polylysine spot on the slide. 7. To create MMP2 predigested collagen IV coated slides, […] predigested collagen IV was dropped onto the dried polylysine spot on the glass slide. 8. The slides with collagen IV were dried uncovered overnight before testing. 9. Next day, […] of T-peptide-FITC (0.1 mg/ml) was added to the MMP2 predigested collagen spot, […] of T-peptide-FITC (0.1 mg/ml) was added to the intact collagen slide, and […] Control peptide-FITC (0.1mg/ml) was added to the MMP2 predigested collagen slide and the slides were incubated in a covered humidified box with wet paper towels at room temperature for 60 minutes. 10. For the ‘blocked epitope’ slide, […] of unlabelled T-peptide-LPETG (0.1 mg/ml) was added to the MMP2 predigested collagen slide and incubated similarly for 60 minutes. This step binds the epitopes present on the collagen IV and prevents further binding with the FITC labelled T-peptide. Next, […] of T-peptide-FITC (0.1 mg/ml) was added to the same area and incubated for 60 minutes. 11. All the treated slides were examined under fluorescence microscopy (IX81 Olympus microscope).

[3] = tested on: areas of localised fibrosis in the myocardium; assay: Ex vivo binding to infarcted mouse myocardium (LAD occlusion); conditions: ex vivo sections of infarcted mouse hearts 6 weeks after LAD ligation
Experimental: To assess whether labelled T-peptide can bind to fibrotic myocardium, a mouse model of myocardial infarction (via left anterior descending coronary artery (LAD) occlusion) was used. This model reflects a very defined area of fibrosis in the infarct zone.
Mice were anaesthetised, the LAD ligated with a suture, and the thorax closed. After 60 mins the suture was removed. After 6 weeks and the development of fibrosis, parts of the infarcted hearts were sectioned and incubated with the T-peptide-FITC and control (s)-peptide-FITC constructs.

[4] = tested on: unstable plaque in the mouse carotid artery; assay: Ex vivo binding to frozen sections of tandem stenosis mouse carotid unstable plaques; conditions: 0.1 mg/ml conjugate, 60 minutes, FITC channel fluorescence microscopy
Experimental: (§5) Conjugates of T-peptide (TLTYTWS)-FITC (Alexa 488) and control peptide (Con-peptide)-FITC were commercially synthesized (GL Biochem, Shanghai China) using solid phase peptide synthesis, as described above. The concentration of the synthesized peptide-FITC conjugates was 1 mg/ml.
(§6) At 12 weeks of age and 6 weeks after commencement of high fat diet, ApoE−/− mice (C57BL/6J background) were anaesthetized by intraperitoneal injection of a mixture of ketamine (100 mg/kg) and xylazine (10 mg/kg). An incision was made in the neck and the right common carotid artery exposed by dissecting away circumferential connective tissue. A tandem stenosis with 150 μm outer diameter was introduced with the distal stenosis placed 1 mm from the carotid artery bifurcation and the proximal stenosis 3 mm from the distal stenosis. A 6-0 blue braided polyester fibre suture was tied around the carotid artery and a 150 μm needle to achieve the stenosis diameter of 150 μm and the needle was subsequently removed after the suture was secured. The incision wound was sutured close and the mice resumed their high fat diet. […]
(§7) Frozen […] tissue sections of tandem stenosis mouse carotid unstable plaques and aortic arch stable plaques on glass slides were thawed for 30 minutes at room temperature. […] The slides were then examined by fluorescence microscopy (IX81 Olympus microscope) in the FITC 488 nm channel.

[5] = tested on: stable plaque (aortic arch segment 5); assay: In vivo binding to stable aortic arch plaque after intravenous administration to tandem stenosis mice; design: species or system mouse; conditions: tandem stenosis ApoE-/- mice, bolus plus infusion into jugular vein, tissue taken 30 minutes after administration
Experimental: as §1, §2, §3

intact collagen IV = assay: In vitro binding to undigested collagen IV coated glass slides; design: species or system human; conditions: 0.1 mg/ml, 60 minutes, room temperature
Experimental: as §4
Binding to MMP2 digested collagen IV Collagen IV was applied to glass slides coated with polylysine. 1. Polylysine (MW of 30,000-70,000) at 0.1 mg/ml in 0.15 M borate buffer (pH 8.3) was prepared and filtered with […] pore size membrane syringe filter (Millex® Syringe Filter, Millipore). 2. Collagen IV (collagen type IV from human fibroblast culture, Sigma. Aldrich) was diluted to 1:10 with Hank's Balanced Salt Solution (HBSS) to 0.04 mg/ml. 3. For MMP2 digestion, Active recombinant human MMP2 enzyme (expressed in CHO cells) was purchased from Calbiochem. MMP2 stock solution was diluted with PBS to create 0.01 μg/μl MMP2 concentration according to manufacturer's recommendations. 4. For T-peptide-HTC testing using added MMP2, 20 μl of polylysine was spotted on several glass slides and left overnight at room temperature to dry. This forms a coating base for collagen to adhere to subsequently. 5. […] All the treated slides were examined under fluorescence microscopy (IX81 Olympus microscope).

[6] = tested on: stable aortic arch plaques; assay: Ex vivo binding to frozen sections of stable aortic arch plaques; design: species or system mouse; conditions: 0.1 mg/ml conjugate, 60 minutes, FITC channel fluorescence microscopy
Experimental: as §5, §6, §7

| blocking of T-peptide-FITC binding to MMP2-predigested collagen IV ([2]; preincubation 0.1 mg/ml, 60 minutes) | binding to MMP2-predigested collagen IV fibres with additional amino acids at the N terminus [2] | Substance | binding to the unstable plaque following intravenous administration [1] | FITC signal on MMP2-predigested collagen IV coated glass slide ([2]; 60 minutes) | binding to fibrotic myocardium [3] | binding to unstable plaque (fluorescent signal) [4] | binding to the stable aortic arch plaque after intravenous administration [5] | FITC signal on undigested collagen IV coated glass slide (intact collagen IV) | FITC signal on MMP2-predigested collagen IV slide preincubated with unlabelled T-peptide ([2]; blocked epitope slide: unlabelled T-peptide-LPETG 0.1 mg/ml 60 minutes, then T-peptide-FITC 0.1 mg/ml 60 minutes) | binding to stable plaque (fluorescent signal) [6] |
| --- | --- | --- | --- | --- | --- | --- | --- | --- | --- | --- |
|  |  | H-GLGYGWSGK(FITC)-OH (SMILES CC(C)C[C@H](NC(=O)CN)C(=O)NCC(=O)N[C@@H](Cc1ccc(O)cc1)C(=O)NCC(=O)N[C@@H](Cc1c[nH]c2ccccc12)C(=O)N[C@@H](CO)C(=O)NCC(=O)N[C@@H](CCCCNC(=S)Nc1ccc2c(c1)C(=O)OC21c2ccc(O)cc2Oc2cc(O)ccc21)C(=O)O) [control peptide-FITC conjugate, reference compound] | no evidence of binding | no FITC signal | no evidence of binding | no significant binding |  |  |  |  |
| blocked binding |  | HTLTYTWSGGGLPETGGHHHHHH-OH [T-peptide-LPETG] |  |  |  |  |  |  |  |  |
|  | did not reduce or eliminate binding | GGGWWSSASPAATLTYTWSGLPAPASPA-eeeeeeee-(Aop)-PLGC(Me)AG-rrrrrrrrr-GAGAPAC (GGGWWSSASPAATLTYTWSGLPAPASPA[dE][dE][dE][dE][dE][dE][dE][dE][AEA]PLG[Cys(Me)]AG[dR][dR][dR][dR][dR][dR][dR][dR][dR]GAGAPAC) [GGG-T-peptide-ACPP-cysteine] |  |  |  |  |  |  |  |  |
|  |  | H-TLTYTWSGK(FITC)-OH (SMILES CC(C)C[C@H](NC(=O)[C@@H](N)[C@@H](C)O)C(=O)N[C@H](C(=O)N[C@@H](Cc1ccc(O)cc1)C(=O)N[C@H](C(=O)N[C@@H](Cc1c[nH]c2ccccc12)C(=O)N[C@@H](CO)C(=O)NCC(=O)N[C@@H](CCCCNC(=S)Nc1ccc2c(c1)C(=O)OC21c2ccc(O)cc2Oc2cc(O)ccc21)C(=O)O)[C@@H](C)O)[C@@H](C)O) [T-peptide-FITC conjugate] | strong binding | strong FITC signal | binds specifically to areas of localised fibrosis in the myocardium | strong fluorescent signal within the lumen | no binding | no FITC signal | no significant FITC signal | no fluorescent signal within the vascular lumen |
